Columns and labels:
vitamin D-deficient rats [1] = test: Intestinal calcium transport (everted gut sac method); format: in vivo, rat; conditions: FIG. 6
Procedure: (§1) Intestinal Calcium Transport and Bone Calcium Mobilization
(§2) Male, weanling Sprague-Dawley rats were placed on Diet 11 (0.47% Ca) diet +AEK for one week followed by Diet 11 (0.02% Ca) +AEK for 3 weeks. The rats were then switched to a diet containing 0.47% Ca for one week followed by two weeks on a diet containing 0.02% Ca. Dose administration began during the last week on 0.02% calcium diet. Four consecutive ip doses were given approximately 24 hours apart. Twenty-four hours after the last dose, blood was collected from the severed neck and the concentration of serum calcium determined as a measure of bone calcium mobilization. The first 10 cm of the intestine was also collected for intestinal calcium transport analysis using the everted gut sac method.

vitamin D-deficient rats [2] = test: Bone calcium mobilization (serum calcium); format: in vivo, rat; conditions: rats on 0.02% Ca diet
Procedure: as §1, §2

[3] = test system: Human promyelocytic leukemia (HL60) cells; test: HL-60 cell differentiation (nitro blue tetrazolium reduction); format: cell-based; conditions: 4 days, FIG. 2
Procedure: Radiolabeled and unlabeled ligands were added to 100 mcl of the diluted protein at a final ethanol concentration of ≦10%, mixed and incubated overnight on ice to reach binding equilibrium. The following day, 100 mcl of hydroxylapatite slurry (50%) was added to each tube and mixed at 10-minute intervals for 30 minutes. The hydroxylapaptite was collected by centrifugation and then washed three times with Tris-EDTA buffer (50 mM Tris, 1.5 mM EDTA, pH 7.4) containing 0.5% Titron X-100. After the final wash, the pellets were transferred to scintillation vials containing 4 ml of Biosafe II scintillation cocktail, mixed and placed in a scintillation counter. Total binding was determined from the tubes containing only radiolabeled ligand. • HL-60 Differentiation • Test Material Study Drugs
The study drugs were dissolved in ethanol and the concentrations determined using UV spectrophotometry. Serial dilutions were prepared so that a range of drug concentrations could be tested without changing the final concentration of ethanol (≦0.2%) present in the cell cultures. […]
HL60 cells were plated at 1.2×10^5 cells/ml. […] The percentage of differentiated cells was determined by counting a total of 200 cells and recording the number that contained intracellular black-blue formazan deposits. Verification of differentiation to monocytic cells was determined by measuring phagocytic activity (data not shown).

[4] = test system: 24-hydroxylase (24Ohase) gene promoter in ROS 17/2.8 (bone) cells; test: In vitro transcription assay (24-hydroxylase promoter luciferase reporter); format: cell-based; conditions: ROS 17/2.8 cells, 24OHase-luciferase, 16 h; FIG. 3; read-out: EC50, transcriptional activity in bone cells
Procedure: In Vitro Transcription Assay
Transcription activity was measured in ROS 17/2.8 (bone) cells that were stably transfected with a 24-hydroxylase (24Ohase) gene promoter upstream of a luciferase reporter gene (Arbour et al., 1998). Cells were given a range of doses. Sixteen hours after dosing the cells were harvested and luciferase activities were measured using a luminometer.
RLU=relative luciferase units.

[5] = molecular target: T1, full-length recombinant rat vitamin D receptor (Rattus norvegicus, UniProt P13053); test: Vitamin D receptor competitive binding with [3H]-1,25(OH)2D3; conditions: full-length recombinant rat VDR; FIG. 1; read-out: Ki, competition with [3H]-1,25(OH)2D3 for binding to vitamin D receptor
T1 construct: Full-length recombinant rat receptor was expressed in E. coli; histidine tag (C); made in house; host or cells: E. coli BL21 (DE3) Codon Plus RIL
T1 sequence (P13053 1-423): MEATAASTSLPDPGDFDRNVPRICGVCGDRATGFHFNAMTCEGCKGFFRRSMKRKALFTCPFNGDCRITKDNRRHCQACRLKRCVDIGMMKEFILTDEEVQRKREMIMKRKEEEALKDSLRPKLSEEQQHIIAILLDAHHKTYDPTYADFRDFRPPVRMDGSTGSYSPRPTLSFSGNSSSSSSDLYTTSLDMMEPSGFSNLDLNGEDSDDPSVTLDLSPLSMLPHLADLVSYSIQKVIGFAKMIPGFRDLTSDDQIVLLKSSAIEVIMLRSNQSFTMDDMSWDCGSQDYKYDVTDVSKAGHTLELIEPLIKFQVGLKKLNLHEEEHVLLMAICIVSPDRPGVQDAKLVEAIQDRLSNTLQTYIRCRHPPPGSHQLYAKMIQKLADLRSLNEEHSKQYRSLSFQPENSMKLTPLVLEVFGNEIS
Procedure: Full-length recombinant rat receptor was expressed in E. coli BL21 (DE3) Codon Plus RIL cells and purified to homogeneity using two different column chromatography systems. The first system was a nickel affinity resin that utilizes the C-terminal histidine tag on this protein. The protein that was eluted from this resin was further purified using ion exchange chromatography (S-Sepharose Fast Flow). Aliquots of the purified protein were quick frozen in liquid nitrogen and stored at −80° C. until use. For use in binding assays, the protein was diluted in TEDK50 (50 mM Tris, 1.5 mM EDTA, pH7.4, 5 mM DTT, 150 mM KCl) with 0.1% Chaps detergent. The receptor protein and ligand concentration were optimized such that no more than 20% of the added radiolabeled ligand was bound to the receptor.
Radiolabeled and unlabeled ligands were added to 100 mcl of the diluted protein at a final ethanol concentration of ≦10%, mixed and incubated overnight on ice to reach binding equilibrium. The following day, 100 mcl of hydroxylapatite slurry (50%) was added to each tube and mixed at 10-minute intervals for 30 minutes. The hydroxylapaptite was collected by centrifugation and then washed three times with Tris-EDTA buffer (50 mM Tris, 1.5 mM EDTA, pH 7.4) containing 0.5% Titron X-100. […]

[6] = 87 or 780 pmol/day ip for 4 days

Row | EC50 [4] [nM] | Ki [5] [nM] | EC50 ([3]; Homo sapiens, HL-60, 96 h) [nM] | SMILES | intestinal calcium transport (vitamin D-deficient rats [1]; [6]) | serum calcium levels (bone calcium mobilization) (vitamin D-deficient rats [2]; all dosages, FIG. 4) | EC50 [3] [nM] | intestinal calcium transport (vitamin D-deficient rats [1]; 7020 pmol/day ip for 4 days) | mobilization of bone calcium (serum calcium) (vitamin D-deficient rats [2]; 87 pmol/day ip for 4 consecutive days) | mobilization of bone calcium (serum calcium) (vitamin D-deficient rats [2]; 780 pmol/day and 7020 pmol/day ip for 4 days)
1 |  |  |  | C=C1/C(=C\C=C2/CCC[C@]3(C)[C@@H]([C@H](C)CCCC(C)(C)O)CC[C@@H]23)C[C@@H](O)C[C@@H]1O [1,25(OH)2D3, 1α,25-dihydroxyvitamin D3, reference compound] | promotes a significant increase | increased serum calcium levels at all dosages | 2.9 |  |  | 
2 | 3.2 | 0.077 | 4.7 | C=C1[C@H](O)CC(=C/C=C2\CCC[C@@]3(C)C2CCC3[C@@H](C)CCCC)C[C@H]1O (stereo partly drawn) [OM, 2-methylene-19,26,27-trinor-(20S)-1α-hydroxyvitamin D3] | does not promote intestinal calcium transport |  |  | significant intestinal calcium transport activity was recorded | did not result in mobilization of bone calcium | without any substantial effect
